Measured values published in patent US8343475B2, “Small cationic antimicrobial peptides” (priority 2006, dated 2013).
No end group written: not given here.

What was measured:
Assay in all cases: Chemokine induction in PBMC (capture ELISA)
Type in all cases: cell-based
[1] = tested on: CXCL1 (Gro-α) release by human PBMC; settings: background (196) subtracted
Description: FIG. 17. Induction of CXCL1 (Gro-α) release by 7.5×10^5 human PBMC in response to treatment with 20 or 100 μg/ml of different peptides for 24 hours.
(§1) Venous blood (20 ml) from healthy volunteers was collected in Vacutainer® collection tubes containing sodium heparin as an anticoagulant (Becton Dickinson, Mississauga, ON) in accordance with UBC ethical approval and guidelines. Blood was diluted 1:1 with complete RPMI 1640 medium and separated by centrifugation over a Ficoll-Paque® Plus (Amersham Biosciences, Piscataway, N.J., USA) density gradient. White blood cells were isolated from the buffy coat, washed twice in RPMI 1640 complete medium, and the number of peripheral blood mononuclear cells (PBMC) was determined by trypan blue exclusion. PBMC (5×10^5) were seeded into 12-well tissue culture dishes (Falcon; Becton Dickinson) at 0.75 to 1×10^6 cells/ml at 37° C. in 5% CO2. The above conditions were chosen to mimic conditions for circulating blood monocytes entering tissues at the site of infection via extravasation.
(§2) Following incubation of the cells under various treatment regimens, the tissue culture supernatants were centrifuged at 1000×g for 5 min, then at 10,000×g for 2 min to obtain cell-free samples. Supernatants were aliquoted and then stored at −20° C. prior to assay for various chemokines by capture ELISA (eBioscience and BioSource International Inc., CA, USA respectively)

[2] = tested on: MCP-1 release by human PBMC; settings: background (204) subtracted
Description: FIG. 15. Induction of MCP-1 release by 7.5×10^5 human PBMC in response to treatment with 20 or 100 μg/ml of different peptides for 24 hours.
as §1, §2

[3] = tested on: MCP-3 release by human PBMC; settings: background (6) subtracted
Description: FIG. 16. Induction of MCP3 release by 7.5×10^5 human PBMC in response to treatment with 20 or 100 μg/ml of different peptides for 24 hours.
as §1, §2

1040 (FQVVKIKVR) [compound 1040]
Chemokine induction Gro-α ([1]; 20 μg/ml peptide): 2 pg/mL | Chemokine induction Gro-α ([1]; 100 μg/ml peptide): 264 pg/mL | Chemokine induction MCP-1 ([2]; 20 μg/ml peptide): 74 pg/mL | Chemokine induction MCP-1 ([2]; 100 μg/ml peptide): 1143 pg/mL | Chemokine induction MCP-3 ([3]; 20 μg/ml peptide): 0 pg/mL | Chemokine induction MCP-3 ([3]; 100 μg/ml peptide): 9 pg/mL

1042 (IVWIWRR) [compound 1042]
Chemokine induction Gro-α ([1]; 20 μg/ml peptide): 44 pg/mL | Chemokine induction Gro-α ([1]; 100 μg/ml peptide): 9 pg/mL | Chemokine induction MCP-1 ([2]; 20 μg/ml peptide): -7 pg/mL | Chemokine induction MCP-1 ([2]; 100 μg/ml peptide): 12 pg/mL | Chemokine induction MCP-3 ([3]; 20 μg/ml peptide): 3 pg/mL | Chemokine induction MCP-3 ([3]; 100 μg/ml peptide): 3 pg/mL

1044 (RRWIVWI) [compound 1044]
Chemokine induction Gro-α ([1]; 20 μg/ml peptide): 1963 pg/mL | Chemokine induction Gro-α ([1]; 100 μg/ml peptide): 1545 pg/mL | Chemokine induction MCP-1 ([2]; 20 μg/ml peptide): 1561 pg/mL | Chemokine induction MCP-1 ([2]; 100 μg/ml peptide): 5024 pg/mL | Chemokine induction MCP-3 ([3]; 20 μg/ml peptide): 115 pg/mL | Chemokine induction MCP-3 ([3]; 100 μg/ml peptide): 261 pg/mL

1045 (RWWRIVI) [compound 1045]
Chemokine induction Gro-α ([1]; 20 μg/ml peptide): 13 pg/mL | Chemokine induction Gro-α ([1]; 100 μg/ml peptide): 435 pg/mL | Chemokine induction MCP-1 ([2]; 20 μg/ml peptide): -2 pg/mL | Chemokine induction MCP-1 ([2]; 100 μg/ml peptide): 989 pg/mL | Chemokine induction MCP-3 ([3]; 20 μg/ml peptide): 0 pg/mL | Chemokine induction MCP-3 ([3]; 100 μg/ml peptide): 31 pg/mL

1046 (WIRVIRW) [compound 1046]
Chemokine induction Gro-α ([1]; 20 μg/ml peptide): 38 pg/mL | Chemokine induction Gro-α ([1]; 100 μg/ml peptide): 147 pg/mL | Chemokine induction MCP-1 ([2]; 20 μg/ml peptide): 46 pg/mL | Chemokine induction MCP-1 ([2]; 100 μg/ml peptide): 449 pg/mL | Chemokine induction MCP-3 ([3]; 20 μg/ml peptide): 1 pg/mL | Chemokine induction MCP-3 ([3]; 100 μg/ml peptide): 4 pg/mL

1047 (IIRRWWV) [compound 1047]
Chemokine induction Gro-α ([1]; 20 μg/ml peptide): -1 pg/mL | Chemokine induction Gro-α ([1]; 100 μg/ml peptide): -3 pg/mL | Chemokine induction MCP-1 ([2]; 20 μg/ml peptide): 8 pg/mL | Chemokine induction MCP-1 ([2]; 100 μg/ml peptide): 130 pg/mL | Chemokine induction MCP-3 ([3]; 20 μg/ml peptide): 0 pg/mL | Chemokine induction MCP-3 ([3]; 100 μg/ml peptide): 0 pg/mL

1048 (IRWVIRW) [compound 1048]
Chemokine induction Gro-α ([1]; 20 μg/ml peptide): 7 pg/mL | Chemokine induction Gro-α ([1]; 100 μg/ml peptide): -11 pg/mL | Chemokine induction MCP-1 ([2]; 20 μg/ml peptide): 96 pg/mL | Chemokine induction MCP-1 ([2]; 100 μg/ml peptide): 38 pg/mL | Chemokine induction MCP-3 ([3]; 20 μg/ml peptide): 0 pg/mL | Chemokine induction MCP-3 ([3]; 100 μg/ml peptide): 0 pg/mL

FRIRVRVIR (FRIRVRVIR-NH2) [compound 1030]
Chemokine induction Gro-α ([1]; 20 μg/ml peptide): 10 pg/mL | Chemokine induction Gro-α ([1]; 100 μg/ml peptide): 674 pg/mL | Chemokine induction MCP-1 ([2]; 20 μg/ml peptide): 139 pg/mL | Chemokine induction MCP-1 ([2]; 100 μg/ml peptide): 2075 pg/mL | Chemokine induction MCP-3 ([3]; 20 μg/ml peptide): 1 pg/mL | Chemokine induction MCP-3 ([3]; 100 μg/ml peptide): 35 pg/mL

LVRAIQVRAVIR (LVRAIQVRAVIR-NH2) [compound 1001]
Chemokine induction Gro-α ([1]; 20 μg/ml peptide): 88 pg/mL | Chemokine induction Gro-α ([1]; 100 μg/ml peptide): 850 pg/mL | Chemokine induction MCP-1 ([2]; 20 μg/ml peptide): 516 pg/mL | Chemokine induction MCP-1 ([2]; 100 μg/ml peptide): 2491 pg/mL | Chemokine induction MCP-3 ([3]; 20 μg/ml peptide): 0 pg/mL | Chemokine induction MCP-3 ([3]; 100 μg/ml peptide): 40 pg/mL

VIWIRWR (VIWIRWR-NH2) [compound 1041]
Chemokine induction Gro-α ([1]; 20 μg/ml peptide): 110 pg/mL | Chemokine induction Gro-α ([1]; 100 μg/ml peptide): 450 pg/mL | Chemokine induction MCP-1 ([2]; 20 μg/ml peptide): 146 pg/mL | Chemokine induction MCP-1 ([2]; 100 μg/ml peptide): 1218 pg/mL | Chemokine induction MCP-3 ([3]; 20 μg/ml peptide): 7 pg/mL | Chemokine induction MCP-3 ([3]; 100 μg/ml peptide): 53 pg/mL

VQLRIWVRR (VQLRIWVRR-NH2) [compound 1006]
Chemokine induction Gro-α ([1]; 20 μg/ml peptide): 65 pg/mL | Chemokine induction Gro-α ([1]; 100 μg/ml peptide): 1245 pg/mL | Chemokine induction MCP-1 ([2]; 20 μg/ml peptide): 392 pg/mL | Chemokine induction MCP-1 ([2]; 100 μg/ml peptide): 3004 pg/mL | Chemokine induction MCP-3 ([3]; 20 μg/ml peptide): 0 pg/mL | Chemokine induction MCP-3 ([3]; 100 μg/ml peptide): 58 pg/mL

WIVIWRR (WIVIWRR-NH2) [compound 1043]
Chemokine induction Gro-α ([1]; 20 μg/ml peptide): 26 pg/mL | Chemokine induction Gro-α ([1]; 100 μg/ml peptide): 881 pg/mL | Chemokine induction MCP-1 ([2]; 20 μg/ml peptide): 98 pg/mL | Chemokine induction MCP-1 ([2]; 100 μg/ml peptide): 1998 pg/mL | Chemokine induction MCP-3 ([3]; 20 μg/ml peptide): 0 pg/mL | Chemokine induction MCP-3 ([3]; 100 μg/ml peptide): 21 pg/mL
